According to article PMC5896380, “Selective imaging of cathepsin L in breast cancer by fluorescent activity-based probes” (Chemical Science, 2018):
Non-standard residues stand in square brackets, D forms with d. *: point of attachment. Phe(3-Cl) = N[C@@H](Cc1cccc(Cl)c1)C(=O)O; ACC = NC(=O)Cc1cc(=O)oc2cc(N*)ccc12; hArg = N=C(N)NCCCC[C@H](N)C(=O)O; ClZ = O=C(OCc1ccccc1Cl)*; Orn = NCCC[C@H](N)C(=O)O; Dap = NC[C@H](N)C(=O)O; Mob = COc1ccc(C*)cc1; Meb = Cc1ccc(C*)cc1; OBn = c1ccc(CO*)cc1; Bn = c1ccc(C*)cc1

Molecular target: T1, cathepsin L (Homo sapiens, UniProt P07711)
T1 construct: made in house
Assay: Kinetic parameters of ACC substrates with cathepsin L
Format: biochemical
Details: for Km: read-out: KM
Procedure: All kinetic experiments were performed using fMax (Molecular Devices) and CLARIOStar (BMG LABTECH) spectrofluorimeters operating in kinetic mode using 96-well plates. ACC-labeled substrates were screened using 355 nm and 460 nm wavelengths (excitation and emission, respectively). […] The buffer was prepared at room temperature and the enzyme kinetic studies were performed at 37 °C.
Classic substrate velocity plots were analyzed according to Michaelis–Menten kinetics and a detailed protocol for the determination of kinetic parameters for ACC-tagged substrates is found elsewhere.[56] […] Experiments were repeated at least three times and results are presented as an average. The SDs were below 15%.

[1] = Fig. 4B, ACC substrates, 100 mM sodium acetate, 100 mM NaCl, 10 mM DTT, 1 mM EDTA, pH 5.5, 37 °C, cathepsin L 0.1–0.5 nM, average of at least three, SD below 15%
[2] = Table S2, cathepsin L, four independent experiments, S.D. below 15%

T1 sequence (P07711 114-333): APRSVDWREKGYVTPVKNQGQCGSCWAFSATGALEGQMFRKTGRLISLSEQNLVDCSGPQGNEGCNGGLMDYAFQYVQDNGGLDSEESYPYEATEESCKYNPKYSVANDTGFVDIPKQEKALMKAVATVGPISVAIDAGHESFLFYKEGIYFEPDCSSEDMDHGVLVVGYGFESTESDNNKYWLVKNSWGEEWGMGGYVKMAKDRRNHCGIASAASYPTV

Substance: Ac-[Dap]R[Phe(3-Cl)]R-{ACC} (SMILES CC(=O)N[C@@H](CN)C(=O)N[C@@H](CCCNC(=N)N)C(=O)N[C@@H](Cc1cccc(Cl)c1)C(=O)N[C@@H](CCCNC(=N)N)C(=O)Nc1ccc2c(CC(N)=O)cc(=O)oc2c1)
- kcat/KM [1]: 25,400,000 M^-1s^-1

Substance: Ac-[Dap][Orn][Phe(3-Cl)]C(Bn)-{ACC} (SMILES CC(=O)N[C@@H](CN)C(=O)N[C@@H](CCCN)C(=O)N[C@@H](Cc1cccc(Cl)c1)C(=O)N[C@@H](CSCc1ccccc1)C(=O)Nc1ccc2c(CC(N)=O)cc(=O)oc2c1)
- kcat/KM [1]: 45,420,000 M^-1s^-1
- kcat [2]: 191 s⁻¹
- kcat/KM [2]: 45,420,000 M-1s-1
- Km [2]: 4.28 µM

Substance: Ac-[Dap][Orn][Phe(3-Cl)]C(Meb)-{ACC} (SMILES CC(=O)N[C@@H](CN)C(=O)N[C@@H](CCCN)C(=O)N[C@@H](Cc1cccc(Cl)c1)C(=O)N[C@@H](CSCc1ccc(C)cc1)C(=O)Nc1ccc2c(CC(N)=O)cc(=O)oc2c1)
- kcat/KM [1]: 41,660,000 M^-1s^-1
- kcat [2]: 207 s⁻¹
- Km [2]: 4.99 µM

Substance: Ac-[Dap][Orn][Phe(3-Cl)]C(Mob)-{ACC} (SMILES COc1ccc(CSC[C@H](NC(=O)[C@H](Cc2cccc(Cl)c2)NC(=O)[C@H](CCCN)NC(=O)[C@H](CN)NC(C)=O)C(=O)Nc2ccc3c(CC(N)=O)cc(=O)oc3c2)cc1)
- kcat/KM [1]: 48,350,000 M^-1s^-1
- kcat [2]: 193 s⁻¹
- Km [2]: 4.15 µM
- hydrolysis by cathepsin L relative to Ac-His-Arg-Phe-Arg-ACC substrate (kcat/KM compared with reference substrate): ~4 times

Substance: Ac-[Dap][Orn][Phe(3-Cl)]E(OBn)-{ACC} (SMILES CC(=O)N[C@@H](CN)C(=O)N[C@@H](CCCN)C(=O)N[C@@H](Cc1cccc(Cl)c1)C(=O)N[C@@H](CCC(=O)OCc1ccccc1)C(=O)Nc1ccc2c(CC(N)=O)cc(=O)oc2c1)
- kcat/KM [1]: 34,270,000 M^-1s^-1
- kcat [2]: 188 s⁻¹
- kcat/KM [2]: 34,270,000 M-1s-1
- Km [2]: 5.67 µM

Substance: Ac-[Dap][Orn][Phe(3-Cl)]K(ClZ)-{ACC} (SMILES CC(=O)N[C@@H](CN)C(=O)N[C@@H](CCCN)C(=O)N[C@@H](Cc1cccc(Cl)c1)C(=O)N[C@@H](CCCCNC(=O)OCc1ccccc1Cl)C(=O)Nc1ccc2c(CC(N)=O)cc(=O)oc2c1)
- kcat/KM [1]: 29,280,000 M^-1s^-1
- kcat [2]: 86.7 s⁻¹
- kcat/KM [2]: 29,280,000 M-1s-1
- Km [2]: 2.98 µM

Substance: Ac-[Dap][Orn][Phe(3-Cl)]K-{ACC} (SMILES CC(=O)N[C@@H](CN)C(=O)N[C@@H](CCCN)C(=O)N[C@@H](Cc1cccc(Cl)c1)C(=O)N[C@@H](CCCCN)C(=O)Nc1ccc2c(CC(N)=O)cc(=O)oc2c1)
- kcat/KM [1]: 19,810,000 M^-1s^-1
- kcat [2]: 141 s⁻¹
- kcat/KM [2]: 19,810,000 M-1s-1
- Km [2]: 7.11 µM

Substance: Ac-[Dap][Orn][Phe(3-Cl)]L-{ACC} (SMILES CC(=O)N[C@@H](CN)C(=O)N[C@@H](CCCN)C(=O)N[C@@H](Cc1cccc(Cl)c1)C(=O)N[C@@H](CC(C)C)C(=O)Nc1ccc2c(CC(N)=O)cc(=O)oc2c1)
- kcat/KM [1]: 11,290,000 M^-1s^-1
- kcat [2]: 41.8 s⁻¹
- kcat/KM [2]: 11,290,000 M-1s-1
- Km [2]: 3.7 µM

Substance: Ac-[Dap][Orn][Phe(3-Cl)]R-{ACC} (SMILES CC(=O)N[C@@H](CN)C(=O)N[C@@H](CCCN)C(=O)N[C@@H](Cc1cccc(Cl)c1)C(=O)N[C@@H](CCCNC(=N)N)C(=O)Nc1ccc2c(CC(N)=O)cc(=O)oc2c1)
- kcat/KM [1]: 36,310,000 M^-1s^-1
- kcat [2]: 195 s⁻¹
- kcat/KM [2]: 36,310,000 M-1s-1
- Km [2]: 5.38 µM

Substance: Ac-[Dap][Orn][Phe(3-Cl)][hArg]-{ACC} (SMILES CC(=O)N[C@@H](CN)C(=O)N[C@@H](CCCN)C(=O)N[C@@H](Cc1cccc(Cl)c1)C(=O)N[C@@H](CCCCNC(=N)N)C(=O)Nc1ccc2c(CC(N)=O)cc(=O)oc2c1)
- kcat/KM [1]: 30,500,000 M^-1s^-1
- kcat [2]: 123 s⁻¹
- kcat/KM [2]: 30,500,000 M-1s-1
- Km [2]: 4.21 µM
